Reference: patent publication US20210161997A1, “TREATING DISEASES VIA TARGETED MODULATION OF GENE SIGNALING NETWORKS” (Camp4 Therapeutics Corporation, priority 2018, published 2021)

How the values were obtained:
Assay type in all cases: cell-based
[1] = test system: ANGPTL3; assay: RNA-seq of ANGPTL3 expression in compound-treated primary human hepatocytes; conditions: primary human hepatocytes (Table 12)
Outline: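 Cryopreserved primary human hepatocytes from three donors, plated at 375,000 cells/well, switched to complete or modified maintenance medium, then dosed with compound (stocks at 1000× final) for about 18 h. Poly(A) mRNA was sequenced directionally, mapped to GRCh38 with STAR, and gene-level abundance (counts, FPKM) estimated with RSEM against GENCODE 24.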

[2] = test system: LDLR; assay: RNA-seq of LDLR expression in compound-treated primary human hepatocytes
Procedure: (§1) Human hepatocytes were obtained from two donors from Massachusetts General Hospital, namely MGH54 and MGH63, and one donor from Lonza, namely HUM4111B. Cryopreserved hepatocytes were cultured in plating media for 16 hours, transferred to maintenance media for 4 hours. Cultured on serum-free media for 2 hours, then a compound was added. The hepatocytes were maintained on the serum-free media for 16 hours prior to gene expression analysis. Primary human hepatocytes were stored in the vapor phase of a liquid nitrogen freezer (about −130° C.).
(§2) Human hepatocytes cultured as described above were plated in 24-well format, adding 375,000 cells per well in a volume of 500 ul plating medium. Four hours before treatment, cells were washed with PBS and the medium was changed to either: fresh maintenance medium (complete) or modified maintenance medium.
(§3) Compound stocks were prepared at 1000× final concentration and added in a 2-step dilution to the medium to reduce risk of a compound precipitating out of solution when added to the cells, and to ensure reasonable pipetting volumes. One at a time, each compound was first diluted 10-fold in warm (about 37° C.) modified maintenance medium (initial dilution=ID), mixed by vortexing, and the ID was diluted 100-fold into the cell culture (e.g. 5.1 ul into 1 well of a 24-well plate containing 0.5 mL medium). The plate was mixed by carefully swirling and after all wells were treated and returned to the incubator overnight. If desired, separate plates/wells were treated with vehicle-only controls and/or positive controls. If using multi-well plates, controls were included on each plate. After about 18 hours, cells were harvested for further analysis, e.g., ChIP-seq, RNA-seq, ATAC-seq, etc.
(§4) This protocol is a modified version of the following protocols: MagMAX mirVana Total RNA Isolation Kit User Guide (Applied Biosystems #MAN0011131 Rev B.0), NEBNext Poly(A) mRNA Magnetic Isolation Module (E7490), and NEBNext Ultra Directional RNA Library Prep Kit for Illumina (E7420) (New England Biosystems #E74901).
(§5) The MagMAX mirVana kit instructions (the section titled “Isolate RNA from cells” on pages 14-17) were used for isolation of total RNA from cells in culture. Two hundred μl of Lysis Binding Mix was used per well of the multiwell plate containing adherent cells (usually a 24-well plate).
(§6) For mRNA isolation and library prep, the NEBNext Poly(A) mRNA Magnetic Isolation Module and Directional Prep kit was used. RNA isolated from cells above was quantified, and prepared in […] of each sample in 50 μl of nuclease-free water. This protocol may be run in microfuge tubes or in a 96-well plate.
(§7) All pass filter reads from each sample were mapped against the human genome (assembly GRCh38/GCA_000001405.15 “no alt” analysis set merged with hs38d1/GCA_000786075.2) using two pass mapping via STAR version 2.5.3a (alignment parameters alignIntronMin=20; alignIntronMax=1000000; outFilterMismatchNmax=999; outFilterMismatchNoverLmax=0.05; outFilterType=BySJout; outFilterMultimapNmax=20; alignSJoverhangMin=8; alignSJDBoverhangMin=1; alignMatesGapMax=1000000) (Dobin et al., Bioinformatics (2012) 29(1):15-21). Genomic alignments were converted to transcriptome alignments based on reference transcript annotations from the Human GENCODE Gene Set release 24 (Harrow et al., Genome Res. (2012) 22(9): 1760-1774). Using unique and multimapped transcriptomic alignments, gene-level abundance estimates were computed using RSEM version 1.3.0 (Li and Dewey, BMC Bioinformatics (2011) 12:323) in a strand-aware manner, and including confidence interval sampling calculations, to arrive at posterior mean estimates (PME) of abundances (counts and normalized FPKM—fragments per kilobase of exon per million mapped fragments) from the underlying Bayesian model. Standard QC were applied (read integrity, mapping statistics, library complexity, fragment bias) to remove unsatisfactory samples.

[3] = test system: PCSK9; assay: RNA-seq of PCSK9 expression in compound-treated primary human hepatocytes
Procedure: as §1, §2, §3, §4, §5, §6, §7

[4] = test system: SERPINC1; assay: RNA-seq of SERPINC1 expression in compound-treated primary human hepatocytes; conditions: significance FPKM ≥1, log 2(fold change) ≥0.5, q-value ≤0.05
Procedure: Human hepatocytes were obtained from two donors from Massachusetts General Hospital, namely MGH54 and MGH63, and one donor from Lonza, namely HUM4111B. Cryopreserved hepatocytes were cultured in plating media for 16 hours, transferred to maintenance media for 4 hours. Cultured on serum-free media for 2 hours, then a compound was added. The hepatocytes were maintained on the serum-free media for 16 hours prior to gene expression analysis. Primary human hepatocytes were stored in the vapor phase of a liquid nitrogen freezer (about -130° C.). Human hepatocytes cultured as described above were plated in 24-well format, adding 375,000 cells per well in a volume of 500 ul plating medium. Four hours before treatment, cells were washed with PBS and the medium was changed to either: fresh maintenance medium (complete) or modified maintenance medium. Compound stocks were prepared at 1000× final concentration and added in a 2-step dilution to the medium to reduce risk of a compound precipitating out of solution when added to the cells, and to ensure reasonable pipetting volumes. […] The plate was mixed by carefully swirling and after all wells were treated and returned to the incubator overnight. If desired, separate plates/wells were treated with vehicle-only controls and/or positive controls. If using multi-well plates, controls were included on each plate. After about 18 hours, cells were harvested for further analysis, e.g., ChIP-seq, RNA-seq, ATAC-seq, etc. This protocol is a modified version of the following protocols: MagMAX mirVana Total RNA Isolation Kit User Guide (Applied Biosystems #MAN0011131 Rev B.0), NEBNext Poly(A) mRNA Magnetic Isolation Module ([…]), and NEBNext Ultra Directional RNA Library Prep Kit for Illumina ([…]) (New England Biosystems #E74901). […] Two hundred μl of Lysis Binding Mix was used per well of the multiwell plate containing adherent cells (usually a 24-well plate). For mRNA isolation and library prep, the NEBNext Poly(A) mRNA Magnetic Isolation Module and Directional Prep kit was used. RNA isolated from cells above was quantified, and prepared in […] of each sample in 50 μl of nuclease-free water. This protocol may be run in microfuge tubes or in a 96-well plate. […] Genomic alignments were converted to transcriptome alignments based on reference transcript annotations from the Human GENCODE Gene Set release 24 (Harrow et al., Genome Res. […] Using unique and multimapped transcriptomic alignments, gene-level abundance estimates were computed using RSEM version 1.3.0 (Li and Dewey, BMC Bioinformatics (2011) 12:323) in a strand-aware manner, and including confidence interval sampling calculations, to arrive at posterior mean estimates (PME) of abundances (counts and normalized FPKM-fragments per kilobase of exon per million mapped fragments) from the underlying Bayesian model. Standard QC were applied (read integrity, mapping statistics, library complexity, fragment bias) to remove unsatisfactory samples. Differential gene expression was computed using the negative binomial model implemented by DESeq2 version 1.16.1 (Love et al., Genome Biol. (2014) 15(12):550). […] RNA-seq signals were also normalized by read depth and visualized using the UCSC browser. To identify small molecules that modulate target gene expression, primary human hepatocytes were prepared as a monoculture, and at least one small molecule compound was applied to the cells. RNA-seq was performed to determine the effects of the compounds on the expression of the target genes in hepatocytes. Fold change was calculated by dividing the level of expression in the cell system that had been perturbed by the level of expression in an unperturbed system.

[5] = test system: SLC37A4; assay: RNA-seq of SLC37A4 expression in compound-treated primary human hepatocytes
Procedure: as §1, §2, §3, §4, §5, §6, §7

[6] = test system: UGT1A1; assay: RNA-seq of UGT1A1 expression in compound-treated primary human hepatocytes
Outline: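 Cryopreserved primary human hepatocytes from three donors were plated in 24-well format, then treated with compound diluted from 1000× stocks in serum-free maintenance medium for about 16–18 h. Poly(A) RNA-seq log2 fold change was computed against vehicle/pan-experiment controls. Significance required FPKM ≥1, log2FC ≥0.5 and q ≤0.05.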

[7] = test system: JAG1; assay: RNA-seq of JAG1 expression in compound-treated primary human hepatocytes
Procedure: (§8) Human hepatocytes were obtained from two donors from Massachusetts General Hospital, namely MGH54 and MGH63, and one donor from Lonza, namely HUM4111B. Cryopreserved hepatocytes were cultured in plating media for 16 hours, transferred to maintenance media for 4 hours. Cultured on serum-free media for 2 hours, then a compound was added. The hepatocytes were maintained on the serum-free media for 16 hours prior to gene expression analysis. Primary human hepatocytes were stored in the vapor phase of a liquid nitrogen freezer (about -130° C.). Human hepatocytes cultured as described above were plated in 24-well format, adding 375,000 cells per well in a volume of 500 ul plating medium. Four hours before treatment, cells were washed with PBS and the medium was changed to either: fresh maintenance medium (complete) or modified maintenance medium. Compound stocks were prepared at 1000× final concentration and added in a 2-step dilution to the medium to reduce risk of a compound precipitating out of solution when added to the cells, and to ensure reasonable pipetting volumes. […] The plate was mixed by carefully swirling and after all wells were treated and returned to the incubator overnight. If desired, separate plates/wells were treated with vehicle-only controls and/or positive controls. If using multi-well plates, controls were included on each plate. After about 18 hours, cells were harvested for further analysis, e.g., ChIP-seq, RNA-seq, ATAC-seq, etc. This protocol is a modified version of the following protocols: MagMAX mirVana Total RNA Isolation Kit User Guide (Applied Biosystems #MAN0011131 Rev B.0), NEBNext Poly(A) mRNA Magnetic Isolation Module ([…]), and NEBNext Ultra Directional RNA Library Prep Kit for Illumina ([…]) (New England Biosystems #E74901). […] Two hundred μl of Lysis Binding Mix was used per well of the multiwell plate containing adherent cells (usually a 24-well plate). For mRNA isolation and library prep, the NEBNext Poly(A) mRNA Magnetic Isolation Module and Directional Prep kit was used. RNA isolated from cells above was quantified, and prepared in […] of each sample in 50 μl of nuclease-free water. This protocol may be run in microfuge tubes or in a 96-well plate. […] Genomic alignments were converted to transcriptome alignments based on reference transcript annotations from the Human GENCODE Gene Set release 24 (Harrow et al., Genome Res. […] Standard QC were applied (read integrity, mapping statistics, library complexity, fragment bias) to remove unsatisfactory samples. Differential gene expression was computed using the negative binomial model implemented by DESeq2 version 1.16.1 (Love et al., Genome Biol. (2014) 15(12):550). […] RNA-seq signals were also normalized by read depth and visualized using the UCSC browser. To identify small molecules that modulate target gene expression, primary human hepatocytes were prepared as a monoculture, and at least one small molecule compound was applied to the cells. RNA-seq was performed to determine the effects of the compounds on the expression of the target genes in hepatocytes. Fold change was calculated by dividing the level of expression in the cell system that had been perturbed by the level of expression in an unperturbed system.

[8] = test system: NOTCH2; assay: RNA-seq of NOTCH2 expression in compound-treated primary human hepatocytes; conditions: primary human hepatocytes
Procedure: as §8

Compound | ANGPTL3 Fold Change (Log2) [1] [Log2] | LDLR Fold Change (Log2) [2] [Log2] | PCSK9 Fold Change (Log2) [3] [Log2] | SERPINC1 Fold Change (Log2) [4] [Log2] | other results
C=CC(=O)Nc1cccc(Nc2nc(Nc3ccc(N4CCN(C(C)=O)CC4)cc3OC)ncc2C(F)(F)F)c1 [CO-1686 (Rociletinib), Rociletinib] | −0.67 | 0.51 | 0 |  | 
COCCOc1ccc2c(c1)ncn2-c1ccc2cccc(N3CCC(N)CC3)c2n1 [CP-673451] |  |  |  | 2.53 | SLC37A4 Fold Change (Log2) [5]: 1.17 Log2; UGT1A1 Fold Change (Log2) [6]: 1.82 Log2
CS[C@H]1SC[C@H]2C(=O)N(C)[C@@H](C(C)C)C(=O)OC[C@@H](NC(=O)c3cnc4ccccc4n3)C(=O)N[C@@H](C)C(=O)N(C)[C@@H]1C(=O)N(C)[C@@H](C(C)C)C(=O)OC[C@@H](NC(=O)c1cnc3ccccc3n1)C(=O)N[C@@H](C)C(=O)N2C [Echinomycin] |  |  |  | 2.29 | SLC37A4 Fold Change (Log2) [5]: 1.59 Log2; UGT1A1 Fold Change (Log2) [6]: 1.10 Log2
COc1cccc2c1C(=O)c1c(O)c3c(c(O)c1C2=O)C[C@@](O)(/C(CO)=N/NC(=O)CCCCCN1C(=O)C=CC1=O)C[C@@H]3O[C@H]1C[C@H](N)[C@H](O)[C@H](C)O1 [INNO-206 (aldoxorubicin), aldoxorubicin] |  |  |  | 1.00 | JAG1 Fold Change (Log2) ([7]; primary human hepatocytes): 0.84 Log2; Significant modulation of JAG1 (in words) ([7]; summary of Table 6): significantly modulate only JAG1; NOTCH2 Fold Change (Log2) [8]: 0 Log2
COCCOc1ccc(N2CCN(CCn3ncc4c3nc(N)n3nc(-c5ccco5)nc43)CC2)cc1 [Preladenant] | −0.73 | 1.07 | 0 |  | 
CN1CCC(CNc2ccc3ncc(-c4cccc(OC(F)(F)F)c4)n3n2)CC1 [SGI-1776] | −0.52 | 0.48 | 0 |  | 
CNC(=O)Nc1ccc(-c2nc(N3CC4CCC(C3)O4)c3cnn(C4CCC5(CC4)OCCO5)c3n2)cc1 [WYE-125132 (WYE-132)] | −0.42 | 1.46 | −0.91 |  | 
